{"source": "patent US20030175678A1", "about": "“Methods for identifying genes regulating desired cell phenotypes” (priority 2001, published 2003)", "key": {"PAL, CHS, and F3-OH": {"test_system": "PAL, CHS, and F3-OH", "assay": "Quantitative RT-PCR of PAL, CHS and F3-OH transcripts in C. dejecta cells", "assay_type": "cell-based, Crassula dejecta", "details": "after 48 hours", "method": "Differential induction of mRNA transcripts associated with the synthesis of catechin derivatives in the C. barkleyi suspension culture (as described in Example 2) and the C. dejecta suspension culture (as described in Example 3) were performed in 250 mL conical flasks containing 100 mL of a secondary metabolite production medium B49 (Gamborg's B5, 5% sucrose, no hormones), inoculated with 16 mL of a 14 day old suspension culture (C. barkleyi) or 40 mL of a 21 day old suspension culture (C. dejecta). The cultures were incubated under low light conditions (approximately 30 lux) at 25° C.\nInduction of mRNA usually occurs within 48 hours of receipt of an inducing signal. Accordingly, samples were taken at intervals of 2, 4, 6, 10, 15, 24, and 48 hours following the above treatments. Samples, sufficient to give at least 1 mL packed cell volume, were centrifuged for five minutes at 4000 rpm and the supernatant removed. […]\nThis mixture was incubated at 42° C. for 50 min then denatured at 70° C. for 15 min and stored at −20° C., after a thirty-fold dilution with distilled water. An aliquot of this reaction was then used to quantify the relative abundance of each of the three genes (PAL, CHS, F3-OH) to the invariant one (TBP), using a real time quantification PCR machine (Perkin Elmer 7700) and the previously described oligonucleotides (shown in FIG. 7) in the following conditions: […]"}, "taxadiene synthase": {"test_system": "taxadiene synthase", "assay": "PCR of taxadiene synthase in Taxus baccata callus cultures", "assay_type": "cell-based", "details": "callus harvested 24 and 48 hours after treatment, 20-25 PCR cycles", "method": "Callus was harvested 24 and 48 hours after treatment. An untreated control was also harvested. Samples (500 mg) were frozen in liquid nitrogen and ground to a fine powder. RNA was prepared with an RNEASY™ kit (Qiagen, Valencia, Calif.) as described above.\nRNA samples (1.75 μg) from 24 hours post-treatment cultures of Taxus baccata were reverse transcribed using an OMNISCRIPT™ RT kit (Qiagen) with an oligo-dT12-18 primer (Sigma-Aldrich Company, Poole, Dorset, UK). Aliquots (≡0.175 μg RNA) were subject to PCR using a Taq PCR Master Mix kit (Qiagen). Primers were designed from conserved regions of the taxadiene synthases from Taxus chinensis and Taxus brevifolia, and validated by amplification of DNA from Taxus baccata. PCR was carried out at an annealing temperature of 50° C. for 30′; extension was for 1 min at 72° C. Samples were taken after 15, 20, 25, and 30 cycles and run on an agarose gel (FIG. 13). After 20 cycles, a band of the expected size is present in the treated samples (slightly more in the 24 hour harvest) but not in the control."}}}
{"smiles": "CC/C=C\\CC1C(=O)CCC1CC(=O)OC", "note": "(centres unmarked) [methyl jasmonate]", "values": [{"measurement": "induction of PAL, CHS, and F3-OH genes", "setting": "PAL, CHS, and F3-OH", "result": "at least 6 fold"}, {"measurement": "induction of taxadiene cyclase", "setting": "taxadiene synthase", "result": "specific induction of the taxadiene cyclase"}]}
